Key:
[1] = system: Clostridium tyrobutyricum; assay: Cellular growth of Clostridium tyrobutyricum (absorbance at 600 nm); assay type: cell-based; conditions: 0.5 g/L in medium, before electrochemical treatment, FIG. 2, read-out: inhibition of the growth of the microorganisms
Description: (§1) As a butyric acid fermentation medium, a medium containing 20 g of glucose, 5 g of yeast extract, 0.2 g of magnesium sulfate, 0.01 g of manganese sulfate, 0.01 g of ferric sulfate, 0.01 g of sodium chloride, 0.5 g of monopotassium phosphate (KH2PO4), 0.5 g of dipotassium phosphate (K2HPO4) and 2 g of ammonium acetate per 1 L of the medium was used. As a butanol fermentation medium, a medium containing 20 g of glucose, 1 g of yeast extract, 0.2 g of magnesium sulfate, 0.01 g of manganese sulfate, 0.01 g of ferric sulfate, 0.01 g of sodium chloride, 0.5 g of monopotassium phosphate (KH2PO4), 0.5 g of dipotassium phosphate (K2HPO4) and 2 g of ammonium acetate per 1 L of the medium was used. Each medium was gas-substituted with argon gas and sterilized at 121° C. for 15 minutes before the experiment. […]
(§2) After the culturing was completed, the concentrations of phenolic and furanic compounds, sugars and acetic acid were measured for each culture. The concentration was analyzed by liquid chromatography (Agilent model 1200). The phenolic compounds were analyzed using a diode array detector and a Zorbax eclipse XDB-C18 column (150×4.6 mm, 3.5 μm). The sugars and acetic acid were analyzed using a refractive index detector and an Aminex HPX-87H column (300×7.8 mm). The growth of the microorganisms was analyzed by measuring absorbance at 600 nm with a spectrophotometer (UVmini-1240, Shimadzu). […]

[2] = Cyclic voltammetry, oxidation peak voltage; assay type: physicochemical
Experimental: First, the optimum voltage for removing each phenolic compound through the electrochemical treatment was determined by cyclic voltammetry. […] In FIG. 1, the abscissa represents voltage (V) and the ordinate represents current (A). […] This means that each of the phenolic compounds is removed by oxidation at the intrinsic voltage.
(§3) A potentiostat (WonA Tech, WMPG 1000) was used for the electrochemical treatment of the medium. Graphite felt was used as an electrode. Specifically, the electrochemical treatment was conducted for by 5 hours at an oxidation peak voltage of each fermentation inhibitor (800 mV for coumaric acid and ferulic acid, 2 V for syringaldehyde and vanillin, 1.8 V for furfural and 5-hydroxyfurfural). Then, the fermentation inhibitors were removed using such methods as gravitational sedimentation, centrifugation, membrane separation, etc. The percentage of the removal rate is wt %.

Clostridium beijerinckii = assay: Production of butanol by Clostridium beijerinckii; assay type: cell-based; conditions: 0.5 g/L in medium, after electrochemical treatment, FIG. 5
Description: as §1, §2

[3] = system: Clostridium tyrobutyricum; assay: Production of butyric acid by Clostridium tyrobutyricum; assay type: cell-based; conditions: 0.5 g/L in medium, after electrochemical treatment at optimum voltage, FIG. 3
Description: as §1, §2

[4] = Electrochemical treatment of medium, removal rate of phenolic and furanic compounds; assay type: physicochemical; conditions: 0.5 g/L added to medium; for Removal rate: wt %
Experimental: In order to measure the removal rate of phenolic and furanic compounds, p-coumaric acid, ferulic acid, syringaldehyde and vanillin were selected as phenolic compounds and furfural and 5-hydroxymethylfurfural were selected as furanic compounds. After adding 0.5 g/L of each of the selected 6 inhibitors to a medium, electric current was flown at each optimum oxidation voltage and then removal rate was measured.
as §3
After the culturing was completed, the concentrations of phenolic and furanic compounds, sugars and acetic acid were measured for each culture. The concentration was analyzed by liquid chromatography (Agilent model 1200). The phenolic compounds were analyzed using a diode array detector and a Zorbax eclipse XDB-C18 column (150×4.6 mm, 3.5 μm). The sugars and acetic acid were analyzed using a refractive index detector and an Aminex HPX-87H column (300×7.8 mm). The growth of the microorganisms was analyzed by measuring absorbance at 600 nm with a spectrophotometer (UVmini-1240, Shimadzu). The concentration of butyric acid and butanol was analyzed using a gas chromatography system (Agilent technology 6890N Network GC system) equipped with a flame ionized detector and an HP-INNOWax column (30 m×250 μm×0.25 μm, Agilent Technologies).

[5] = 1st treatment, 5 hours at oxidation peak voltage

SMILES | oxidation peak voltage [2] | Post-treatment concentration [4, 5] [g/L] | Removal rate [4, 5] [%] | Post-treatment concentration ([4]; 2nd treatment) [g/L] | Removal rate ([4]; 2nd treatment) [%] | inhibition at 500 µg/mL [1] [%] | decrease in butanol production recovered by the electrochemical treatment (Clostridium beijerinckii) [%] | toxicity reduced by the electrochemical treatment [3] [%]
COc1cc(C=O)cc(OC)c1O [Syringaldehyde, syringaldehyde] | 2 V | 0.109 | 78.2 | 0.0265 | 94.7 | – | – | –
O=Cc1ccco1 [Furfural, furfural] | 1.8 V | 0 | 100 | 0 | 100 | – | – | –
COc1cc(/C=C/C(=O)O)ccc1O [Ferulic acid, ferulic acid] | 800 mV | 0.3475 | 30.5 | 0.1155 | 76.9 | – | – | –

Second part, led by results:

oxidation peak voltage [2] | Post-treatment concentration [4, 5] [g/L] | Removal rate [4, 5] [%] | Post-treatment concentration ([4]; 2nd treatment) [g/L] | Removal rate ([4]; 2nd treatment) [%] | SMILES | inhibition at 500 µg/mL [1] [%] | decrease in butanol production recovered by the electrochemical treatment (Clostridium beijerinckii) [%] | toxicity reduced by the electrochemical treatment [3] [%]
800 mV | 0.25 | 50.0 | 0.11 | 78.0 | O=C(O)/C=C/c1ccc(O)cc1 [p-Coumaric acid, p-coumaric acid] | ~100 | ~100 | ~100
1.8 V | 0 | 100 | 0 | 100 | O=Cc1ccc(CO)o1 [HMF, 5-hydroxymethylfurfural] | – | – | –
2 V | 0.251 | 49.8 | 0.089 | 82.2 | COc1cc(C=O)ccc1O [Vanillin, vanillin] | – | – | –

From patent publication US20160024535A1, “ELECTROCHEMICAL DETOXIFICATION METHOD OF WOOD-BASED HYDROLYSATE FOR PRODUCING BIOCHEMICALS OR BIOFUELS, AND DETOXIFIED WOOD-BASED HYDROLYSATE” (Korea Institute of Science and Technology, priority 2013, published 2016)
